Data as given in publication PMC9504289 (Pharmaceuticals, 2022).

The compounds below were run on mutant spike proteins including D614G, delta (B.1.617.2), and omicron (B.1.1.529) – hACE2. Conditions: read-out: IC50 in all assays with mutant spike proteins.
Format: binding, SARS-CoV-2, human

Compound	IC50
O=C(Nc1ccc(-c2ccc(C(=O)Nc3cccc4c(S(=O)(=O)O)cccc34)cc2)cc1)c1ccc([N+](=O)[O-])cc1 [DRI-C24041]	< 3 µM
O=C(Nc1ccc(-c2ccc(C(=O)Nc3cccc4cc(S(=O)(=O)O)ccc34)cc2)cc1)c1ccc([N+](=O)[O-])cc1 [DRI-C23041]	< 3 µM
O=S(=O)(O)c1ccc(/N=N/c2c(O)ccc3cc(S(=O)(=O)O)ccc23)cc1 [Sunset yellow, sunset yellow FCF]	> 500 µM
